Results: US12371428B2 (Exelixis, Inc., priority 2019, dated 2025)
Read-outs that look alike come from different tables or passages of the source.

Key:
Format in all cases: cell-based
[1] = molecular target: Mer (phospho-Mer, MERTK-transfected 293A cells) (Homo sapiens (Human), UniProt Q12866); assay: Mer autophosphorylation ELISA in transient transfected 293A cells (Example H); conditions: cellular activity
Protocol: 293A cells (Thermo Fisher #R70507) were seeded at 1.5×10^6 cells/well onto 100 mm dish (Greiner #664169), in DMEM (Thermo Fisher #11995-040) containing 10% FBS (Thermo Fisher #26140-079), 1% MEM NEAA (Thermo Fisher #11140-050), 1% GlutaMax (Thermo Fisher #35050-061), and 1% Penicillin Streptomycin (Thermo Fisher #15140-122). 293A cells were incubated at 37° C., 5% CO2 for 24 h and then transfected with […] MERTK DNA (Genecopoeia #EX-Z8208-M02) using TransIT LT1 transfection reagent (Mirus-Bio #MIR2305). After 24 h incubation, the transfected 293A cells were seeded at 1×10^5 cells/well onto 96-well plates (Corning #3904) in DMEM growth medium overnight. Test compounds were serially diluted to produce an 8-point dose curve in fresh serum-free medium to a final concentration of 0.3% DMSO (vehicle) and added to the cells and incubated for 1 h. Cells were then immediately lysed with 150 μL of cold 1× lysis buffer [20 mM Tris, 137 mM sodium chloride, 2 mM EDTA, 10% glycerol, 1% NP-40 alternative, 1 mM activated sodium orthovanadate, 1 mM PefaBloc SC (Sigma-Aldrich #11429868001), protease/phosphatase inhibitor tablet (Thermo Fisher #A32959)]. Lysates were clarified by centrifugation and 50 µL/well added in to the human phospho-Mer DuoSet IC ELISA (R&D Systems #DYC2579-2). Assay was performed according to manufacturer's instructions and sample phospho-Mer concentrations were extrapolated using human phospho-Mer control (R&D Systems #841793) as a standard. Positive control wells (100% activity) contained DMSO-treated cell lysates. Negative control wells (0% activity) contained reference inhibitor-treated cell lysates. IC50 values were calculated by nonlinear regression analysis using a 4-parameter logistic curve fit in ActivityBase XE (JDBS).

[2] = molecular target: Met (phospho-Met, HGF-stimulated PC-3 prostate cancer cells) (Homo sapiens (Human), UniProt P08581); assay: Met autophosphorylation ELISA in PC-3 cells (Example F); conditions: cellular activity, read-out: c-Met IC50
Protocol: PC-3 prostate cancer cells (ATCC #CRL-1435) were seeded at 4×10^4 cells/well onto 24-well plates (Greiner #662165), in DMEM (Thermo Fisher #11995-040) containing 10% FBS (Thermo Fisher #26140-079), 1% MEM NEAA (Thermo Fisher #11140-050), 1% GlutaMax (Thermo Fisher #35050-061), and 1% Penicillin Streptomycin (Thermo Fisher #15140-122). PC-3 cells were incubated at 37° C., 5% CO2 for 24 h and then starved for 3 h in serum-free medium. Test compounds were serially diluted to produce an 8-point dose curve in fresh serum-free medium to a final concentration of 0.3% DMSO (vehicle) and added to the cells and incubated for 1 h. Cells were then stimulated with 100 ng/mL recombinant human HGF (R&D Systems #294-HG-250) for 10 min, washed with cold PBS, and immediately lysed with […] of cold 1× lysis buffer [20 mM Tris, 137 mM sodium chloride, 2 mM EDTA, 10% glycerol, 1% NP-40 alternative, 1 mM activated sodium orthovanadate, 1 mM PefaBloc SC (Sigma-Aldrich #11429868001), protease/phosphatase inhibitor tablet (Thermo Fisher #A32959)]. Lysates were clarified by centrifugation and 100 μL/well added into the PathScan phospho-Met (panTyr) Sandwich ELISA (Cell Signaling Technology #7333). Assay was performed according to manufacturer's instructions. Positive control wells (100% activity) contained HGF-stimulated, DMSO-treated cell lysates. Negative control wells (0% activity) contained HGF-stimulated, reference inhibitor-treated cell lysates. IC50 values were calculated by nonlinear regression analysis using a 4-parameter logistic curve fit in ActivityBase XE (IDBS).

[3] = molecular target: KDR (phospho-KDR, VEGF165-stimulated HUVEC cells) (Homo sapiens (Human), UniProt P35968); assay: KDR autophosphorylation ELISA in HUVEC cells (Example G); conditions: cellular activity; KDR autophosphorylation ELISA in HUVEC cells
Protocol: Human umbilical vein endothelial cells or HUVEC (Lonza #C2519A) were seeded at 2×10^4 cells/well onto 96-well plates (Corning #3904), in EGM-2 growth medium (Lonza #CC-3162) containing 1% Penicillin Streptomycin (Thermo Fisher #15140-122). HUVEC cells were incubated at 37° C., 5% CO2 for 24 h and then starved for 24 h in serum-free EBM-2 basal medium (Lonza #CC-3156) containing 1% Penicillin Streptomycin. Test compounds were serially diluted to produce an 8-point dose curve in fresh serum-free medium to a final concentration of 0.3% DMSO (vehicle) and added to the cells and incubated for 1 h. Cells were then stimulated with 100 ng/mL recombinant human VEGF165 (R&D Systems #293-VE-500) for 5 min, washed with cold PBS, and immediately lysed with […] of cold 1× lysis buffer [20 mM Tris, 137 mM sodium chloride, 2 mM EDTA, 10% glycerol, 1% NP-40 alternative, 1 mM activated sodium orthovanadate, 1 mM PefaBloc SC (Sigma-Aldrich #11429868001), protease/phosphatase inhibitor tablet (Thermo Fisher #A32959)]. Lysates were collected and 100 μL/well added into the human phospho-KDR DuoSet IC ELISA (R&D Systems #DYC1766-2). Assay was performed according to manufacturer's instructions and sample phospho-KDR concentrations were extrapolated using human phospho-KDR control (R&D Systems #841421) as a standard. Positive control wells (100% activity) contained VEGF165-stimulated, DMSO-treated cell lysates. Negative control wells (0% activity) contained non-stimulated cell lysates. IC50 values were calculated by nonlinear regression analysis using a 4-parameter logistic curve fit in ActivityBase XE (IDBS).

[4] = Mer autophosphorylation ELISA in transient transfected 293A cells
[5] = Met autophosphorylation ELISA in PC-3 cells

Sequence of Mer (phospho-Mer, MERTK-transfected 293A cells) (Q12866 21-999): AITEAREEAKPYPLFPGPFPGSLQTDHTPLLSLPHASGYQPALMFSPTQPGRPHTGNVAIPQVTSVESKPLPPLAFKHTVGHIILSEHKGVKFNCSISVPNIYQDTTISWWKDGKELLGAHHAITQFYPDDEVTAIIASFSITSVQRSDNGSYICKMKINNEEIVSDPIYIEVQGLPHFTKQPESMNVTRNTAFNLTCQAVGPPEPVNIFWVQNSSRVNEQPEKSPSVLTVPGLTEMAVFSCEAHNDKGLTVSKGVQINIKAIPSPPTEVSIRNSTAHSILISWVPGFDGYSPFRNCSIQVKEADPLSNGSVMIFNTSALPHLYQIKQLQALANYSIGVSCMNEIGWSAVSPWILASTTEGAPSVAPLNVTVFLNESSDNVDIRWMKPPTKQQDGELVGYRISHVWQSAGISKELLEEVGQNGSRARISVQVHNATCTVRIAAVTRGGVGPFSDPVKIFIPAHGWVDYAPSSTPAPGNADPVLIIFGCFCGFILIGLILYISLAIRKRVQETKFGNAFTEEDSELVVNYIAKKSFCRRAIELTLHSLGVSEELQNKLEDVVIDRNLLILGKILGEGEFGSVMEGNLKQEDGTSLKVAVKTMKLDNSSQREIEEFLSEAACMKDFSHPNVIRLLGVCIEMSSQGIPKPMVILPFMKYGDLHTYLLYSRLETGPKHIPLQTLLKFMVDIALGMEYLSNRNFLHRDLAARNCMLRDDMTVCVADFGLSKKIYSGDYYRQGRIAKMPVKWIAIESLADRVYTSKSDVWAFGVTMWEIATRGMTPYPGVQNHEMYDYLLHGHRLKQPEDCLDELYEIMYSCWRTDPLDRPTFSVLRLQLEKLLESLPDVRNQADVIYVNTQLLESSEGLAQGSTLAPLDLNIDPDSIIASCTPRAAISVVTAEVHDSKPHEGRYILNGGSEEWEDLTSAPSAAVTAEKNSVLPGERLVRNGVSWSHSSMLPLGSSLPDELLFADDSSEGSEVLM
Sequence of Met (phospho-Met, HGF-stimulated PC-3 prostate cancer cells) (P08581 25-1390): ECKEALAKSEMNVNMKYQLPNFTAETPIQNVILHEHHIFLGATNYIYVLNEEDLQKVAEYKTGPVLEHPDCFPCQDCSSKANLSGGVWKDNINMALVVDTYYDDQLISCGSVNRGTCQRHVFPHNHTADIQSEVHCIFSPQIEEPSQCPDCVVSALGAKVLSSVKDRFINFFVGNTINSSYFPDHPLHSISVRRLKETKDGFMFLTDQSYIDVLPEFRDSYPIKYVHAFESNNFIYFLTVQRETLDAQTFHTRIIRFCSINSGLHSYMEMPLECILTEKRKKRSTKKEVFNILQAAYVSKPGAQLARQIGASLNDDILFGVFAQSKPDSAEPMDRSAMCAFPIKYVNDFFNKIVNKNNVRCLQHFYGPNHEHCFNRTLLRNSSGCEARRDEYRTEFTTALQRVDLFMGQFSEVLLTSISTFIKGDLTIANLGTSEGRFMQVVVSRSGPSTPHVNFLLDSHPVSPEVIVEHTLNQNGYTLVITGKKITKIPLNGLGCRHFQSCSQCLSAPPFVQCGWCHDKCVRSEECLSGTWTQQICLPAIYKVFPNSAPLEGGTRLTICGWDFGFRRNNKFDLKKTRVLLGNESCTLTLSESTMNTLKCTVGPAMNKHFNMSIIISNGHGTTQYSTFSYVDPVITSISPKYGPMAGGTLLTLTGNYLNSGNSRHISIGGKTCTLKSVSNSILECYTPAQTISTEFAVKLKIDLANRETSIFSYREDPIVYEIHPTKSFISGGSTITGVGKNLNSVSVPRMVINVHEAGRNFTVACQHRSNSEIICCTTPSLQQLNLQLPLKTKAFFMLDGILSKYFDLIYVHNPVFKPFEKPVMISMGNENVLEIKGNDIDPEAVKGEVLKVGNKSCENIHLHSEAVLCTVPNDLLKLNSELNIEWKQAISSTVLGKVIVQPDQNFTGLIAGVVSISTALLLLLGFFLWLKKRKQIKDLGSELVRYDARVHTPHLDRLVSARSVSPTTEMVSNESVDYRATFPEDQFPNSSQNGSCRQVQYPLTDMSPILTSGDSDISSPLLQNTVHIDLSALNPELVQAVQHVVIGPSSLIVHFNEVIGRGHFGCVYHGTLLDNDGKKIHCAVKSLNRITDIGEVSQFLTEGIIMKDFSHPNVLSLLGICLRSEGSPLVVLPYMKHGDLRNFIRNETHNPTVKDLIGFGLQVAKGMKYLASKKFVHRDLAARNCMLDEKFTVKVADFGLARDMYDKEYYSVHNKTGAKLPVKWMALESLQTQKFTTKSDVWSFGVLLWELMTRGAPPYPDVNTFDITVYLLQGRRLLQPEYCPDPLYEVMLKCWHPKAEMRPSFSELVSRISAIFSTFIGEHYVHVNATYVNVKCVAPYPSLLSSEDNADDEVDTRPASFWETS
Sequence of KDR (phospho-KDR, VEGF165-stimulated HUVEC cells) (P35968 20-1356): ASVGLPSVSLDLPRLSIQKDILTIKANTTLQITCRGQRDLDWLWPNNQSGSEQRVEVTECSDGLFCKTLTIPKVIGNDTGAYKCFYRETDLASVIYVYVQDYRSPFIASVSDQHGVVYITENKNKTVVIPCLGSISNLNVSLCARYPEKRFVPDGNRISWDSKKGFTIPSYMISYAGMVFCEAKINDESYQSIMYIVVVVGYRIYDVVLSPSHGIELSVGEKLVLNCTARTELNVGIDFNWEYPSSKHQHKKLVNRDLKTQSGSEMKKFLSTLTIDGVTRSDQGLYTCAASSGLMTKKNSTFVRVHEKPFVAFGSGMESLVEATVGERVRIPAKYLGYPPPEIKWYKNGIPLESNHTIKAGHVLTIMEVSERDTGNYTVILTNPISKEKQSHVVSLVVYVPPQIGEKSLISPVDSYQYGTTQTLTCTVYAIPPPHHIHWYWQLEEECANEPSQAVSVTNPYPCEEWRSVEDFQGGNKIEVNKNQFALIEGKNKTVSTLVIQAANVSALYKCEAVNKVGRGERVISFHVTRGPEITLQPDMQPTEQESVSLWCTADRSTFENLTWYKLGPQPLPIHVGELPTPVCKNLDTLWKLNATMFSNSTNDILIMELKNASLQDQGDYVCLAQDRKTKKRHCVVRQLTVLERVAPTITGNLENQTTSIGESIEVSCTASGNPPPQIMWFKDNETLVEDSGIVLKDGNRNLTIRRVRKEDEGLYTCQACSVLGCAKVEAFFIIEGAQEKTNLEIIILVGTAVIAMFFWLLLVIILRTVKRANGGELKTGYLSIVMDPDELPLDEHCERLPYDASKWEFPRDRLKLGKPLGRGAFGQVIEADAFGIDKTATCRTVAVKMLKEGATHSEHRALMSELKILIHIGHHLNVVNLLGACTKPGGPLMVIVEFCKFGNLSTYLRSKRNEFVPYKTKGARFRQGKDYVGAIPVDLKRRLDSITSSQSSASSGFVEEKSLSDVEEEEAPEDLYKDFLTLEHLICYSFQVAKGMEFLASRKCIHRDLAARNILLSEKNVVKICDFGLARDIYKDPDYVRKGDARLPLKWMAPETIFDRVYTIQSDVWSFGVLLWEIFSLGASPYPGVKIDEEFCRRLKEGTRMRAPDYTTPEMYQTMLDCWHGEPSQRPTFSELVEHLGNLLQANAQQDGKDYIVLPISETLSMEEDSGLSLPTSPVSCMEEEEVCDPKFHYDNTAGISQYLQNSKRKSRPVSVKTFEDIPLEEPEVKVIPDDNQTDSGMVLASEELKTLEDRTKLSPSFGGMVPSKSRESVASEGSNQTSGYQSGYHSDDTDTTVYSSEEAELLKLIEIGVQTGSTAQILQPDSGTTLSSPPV

| Structure (SMILES) | IC50 [1, 4] [nM] | IC50 [2, 5] [nM] | IC50 [3] [nM] | IC50 ([1]; transfected 293A cells) [nM] | IC50 ([2]; PC-3 cells) [nM] |
| --- | --- | --- | --- | --- | --- |
| COc1cnc2c(Oc3ccc(NC(=O)c4cnc(C)c(-c5ccc(C(C)C)cc5)c4O)cc3F)ccnc2c1 [Compound 705, N-[3-fluoro-4-[(7-methoxy-1,5-naphthyridin-4-yl)oxy]phenyl]-4-hydroxy-6-methyl-5-(4-propan-2-ylphenyl)pyridine-3-carboxamide] | < 100 | < 100 | > 300 |  |  |
| COc1cnc2c(Oc3ccc(NC(=O)c4cnc(C)c(-c5ccc(F)c(F)c5)c4O)cc3F)ccnc2c1 [Compound 706, 5-(3,4-difluorophenyl)-N-[3-fluoro-4-[(7-methoxy-1,5-naphthyridin-4-yl)oxy]phenyl]-4-hydroxy-6-methylpyridine-3-carboxamide] | < 100 | < 100 | < 100 |  |  |
| COc1cnc2c(Oc3ccc(NC(=O)c4cnc(C)c(-c5ccc(F)cc5OC)c4O)cc3F)ccnc2c1 [Compound 707, N-[3-fluoro-4-[(7-methoxy-1,5-naphthyridin-4-yl)oxy]phenyl]-5-(4-fluoro-2-methoxyphenyl)-4-hydroxy-6-methylpyridine-3-carboxamide] | < 100 | < 100 | < 100 |  |  |
| COc1cc2nccc(Oc3ccc(NC(=O)c4c(C)nc(C)c(-c5ccc(F)c(F)c5)c4O)cc3F)c2nc1OC [Compound 708, 5-(3,4-difluorophenyl)-N-[4-[(6,7-dimethoxy-1,5-naphthyridin-4-yl)oxy]-3-fluorophenyl]-4-hydroxy-2,6-dimethylpyridine-3-carboxamide] | < 100 | < 100 | < 100 |  |  |
| COc1cc2nccc(Oc3ccc(NC(=O)c4c(C)nc(C)c(-c5ccc(F)c(C)c5)c4O)cc3F)c2nc1OC [Compound 710, N-[4-[(6,7-dimethoxy-1,5-naphthyridin-4-yl)oxy]-3-fluorophenyl]-5-(4-fluoro-3-methylphenyl)-4-hydroxy-2,6-dimethylpyridine-3-carboxamide] | < 100 | < 100 | < 100 |  |  |
| COc1cc2nccc(Oc3ccc(NC(=O)c4c(C)nc(C)c(-c5ccc(C(C)C)cc5)c4O)cc3F)c2nc1OC [Compound 711, N-[4-[(6,7-dimethoxy-1,5-naphthyridin-4-yl)oxy]-3-fluorophenyl]-4-hydroxy-2,6-dimethyl-5-(4-propan-2-ylphenyl)pyridine-3-carboxamide] | < 100 | < 100 | < 100 |  |  |
| COc1ccc(-c2c(C)nc(C)c(C(=O)Nc3ccc(Oc4ccnc5cc(OC)c(OC)nc45)c(F)c3)c2O)cc1C [Compound 712, N-[4-[(6,7-dimethoxy-1,5-naphthyridin-4-yl)oxy]-3-fluorophenyl]-4-hydroxy-5-(4-methoxy-3-methylphenyl)-2,6-dimethylpyridine-3-carboxamide] | < 100 | < 100 | < 100 |  |  |
| COc1ccc(-c2c(C)nc(C)c(C(=O)Nc3ccc(Oc4ccnc5cc(OC)c(OC)nc45)c(F)c3)c2O)c(OC)c1 [Compound 713, N-[4-[(6,7-dimethoxy-1,5-naphthyridin-4-yl)oxy]-3-fluorophenyl]-5-(2,4-dimethoxyphenyl)-4-hydroxy-2,6-dimethylpyridine-3-carboxamide] | < 100 | < 100 |  |  |  |

Further lines, results first:

| IC50 [1, 4] [nM] | IC50 [2, 5] [nM] | IC50 [3] [nM] | IC50 ([1]; transfected 293A cells) [nM] | IC50 ([2]; PC-3 cells) [nM] | Structure (SMILES) |
| --- | --- | --- | --- | --- | --- |
| < 100 | < 100 | < 100 |  |  | COc1cc(-c2c(C)nc(C)c(C(=O)Nc3ccc(Oc4ccnc5cc(OC)c(OC)nc45)c(F)c3)c2O)ccc1F [Compound 709, N-[4-[(6,7-dimethoxy-1,5-naphthyridin-4-yl)oxy]-3-fluorophenyl]-5-(4-fluoro-3-methoxyphenyl)-4-hydroxy-2,6-dimethylpyridine-3-carboxamide] |
| < 100 | < 100 |  |  |  | COc1cc2c(Oc3ccc(NC(=O)c4nc(C)c(C)n(-c5ccc(F)cc5)c4=O)cc3F)ccnc2cn1 [Compound 714, N-[3-fluoro-4-[(6-methoxy-1,7-naphthyridin-4-yl)oxy]phenyl]-4-(4-fluorophenyl)-5,6-dimethyl-3-oxopyrazine-2-carboxamide] |
| < 100 | < 100 | < 100 |  |  | CCOc1ccn(-c2ccc(F)cc2)c(=O)c1C(=O)Nc1ccc(Oc2ccnc3cc(OC)c(OC)nc23)c(F)c1 [Compound 715, N-[4-[(6,7-dimethoxy-1,5-naphthyridin-4-yl)oxy]-3-fluorophenyl]-4-ethoxy-1-(4-fluorophenyl)-2-oxopyridine-3-carboxamide] |
| < 100 | < 100 | > 300 |  |  | CCOc1ccn(-c2ccc(F)cc2)c(=O)c1C(=O)Nc1ccc(Oc2ccnc3cc(OC)cnc23)c(F)c1 [Compound 716, 4-ethoxy-N-[3-fluoro-4-[(7-methoxy-1,5-naphthyridin-4-yl)oxy]phenyl]-1-(4-fluorophenyl)-2-oxopyridine-3-carboxamide] |
| < 100 | < 100 | > 300 |  |  | CCOc1ccn(-c2ccc(F)cc2)c(=O)c1C(=O)Nc1ccc(Oc2ccnc3cc(OC)cnc23)cc1 [Compound 717, 4-ethoxy-1-(4-fluorophenyl)-N-[4-[(7-methoxy-1,5-naphthyridin-4-yl)oxy]phenyl]-2-oxopyridine-3-carboxamide] |
| < 100 | < 100 | 100 to 300 |  |  | CCOc1ccn(-c2ccc(F)cc2)c(=O)c1C(=O)Nc1ccc(Oc2ccnc3cc(OC)c(OC)nc23)cc1 [Compound 718, N-[4-[(6,7-dimethoxy-1,5-naphthyridin-4-yl)oxy]phenyl]-4-ethoxy-1-(4-fluorophenyl)-2-oxopyridine-3-carboxamide] |
|  |  |  | < 100 | < 100 | COc1cc2nccc(Oc3ccc(NC(=O)c4c(C)n(CC(F)(F)F)cc(-c5ccc(F)cc5C)c4=O)cc3F)c2nc1OC [Compound 802, N-[4-[(6,7-dimethoxy-1,5-naphthyridin-4-yl)oxy]-3-fluorophenyl]-5-(4-fluoro-2-methylphenyl)-2-methyl-4-oxo-1 (2,2,2-trifluoroethyl)pyridine-3-carboxamide] |
